Series [1] can be described thus: Log P from reversed-phase TLC Rf/Rm values (MeOH in water mobile phases). The note with it: for Rm: calculated from Rf. The procedure:
The partition coefficient (P) is used to describe the lipophilicity of a drug. It is defined as the ratio of equilibrium concentrations of a drug in an organic phase (Corg) and an aqueous phase (Caq).
Most commonly the organic solvent is n-octanol and the other solvent is water. Hydrophobic molecules will have a high P value while hydrophilic molecules will have a low P value.
Rm values were calculated from Rf values that were obtained at three different mobile phase compositions (40, 50 and 60% MeOH in water).
The Rm value was calculated using the following equation: […]
The theoretical Rm value at 0% organic modifier was calculated by extrapolating from the calibration curves that were obtained. These values were then correlated to the literature log P of two reference compounds (methyl benzoate and paracetamol).

For series [2] the following is noted: literature log P of reference compounds; cited from earlier work.
The next series concerns Aldara-treated mice. The series is described as follows: Aldara-induced model of psoriasis in mice, clinical scoring (PASI). It is filed as in vivo, mice (C57BL/6J). The note with it: for PASI scores: relative to Vehicle; for inflammation in the mouse psoriasis model: summary statement in RESULTS. The method, then:
Specific Pathogen-Free female C57BL/6J strain mice, 6-8 weeks of age, were obtained from a commercial supplier and bred in-house (JAX, Charles River). Mice were fed irradiated diet and housed in individually ventilated cages (Tecniplast, UK) under positive pressure. All animal experiments were performed in compliance with the Health Products Regulatory Authority and approved by the Trinity College Dublin's BioResources ethical review board.
The Aldara-induced model of psoriasis was used (Flutter and Nestle, 2013; Morwietz, 2015; Russell et al., 2013; van der Fits et al., 2009). The dorsal skin of mice was shaved and depilated on day −1. Mice were that were in the telogen phase (resting phase) of the hair cycle were chosen for experiments. Mice with visual skin damage from shaving were excluded. Mice were then randomly divided into groups for treatment with topical application of vehicle (white petroleum jelly) or Solvotrin test compounds, prepared in white petroleum jelly. On day 0, mice were scored for disease signs, as per below. After which 62.5 mg of Aldara™ cream (5% Imiquimod; MEDA Pharmaceuticals) was applied to a defined area of the shaved dorsal skin surface. Thirty minutes after the Aldara application, test compounds or vehicle was applied to the dorsal flank, to cover the entire Aldara-challenged surface, with an even layer of the white petroleum. This process was repeated for a further 5 days. Mice were scored daily. On day 6 the mice were euthanized for tissue collection.
The skin of mice was scored for signs of psoriasis-like inflammation for a total of 7 days, (i.e. days 0-6), as described (van der Fits et al., 2009). Mice were scored according to 3 parameters: erythema (the redness of skin); thickening of the skin; and scaling (dryness and flaking of the skin). For each parameter, the mice were scored on a scale from 0-4. Mice with no pathology were scored 0. Mice with mild pathology scored 1. […] The total, or Psoriasis Area and Severity Index (PASI), score was the cumulative score of all three parameters. Therefore for each mouse studied the PASI score can range between 0 to 12.
Power calculations on data from previous studies have shown that a sample size of at least 6 will detect significant difference (P<0.05) in PASI scores between groups. ANOVA and Dunnett Multiple Comparison Test determined statistical differences between multiple groups. Two tailed Student's t-test was used to compare statistical differences between two groups.
Unless otherwise specified percentage concentration of a test compound in a composition refers to the weight percent of said test compound in the composition. For example, application of 2% compound X, means application of a composition comprising 2 weight percent of compound X.

Another series deals with normal healthy skin. Kind of series: Assessment of erythema and itchiness after topical application to shaved forearm. It is filed as in vivo. The procedure:
Test article dispersed in petroleum jelly was applied to a 2×2 cm patch of shaved forearm (n=3). At specified time intervals the degree of erythema was recorded by blinded observers on a scale of 1-4 (n=3). Itchiness was observed by scratching behaviour also by blinded observers on a scale of 1-4. The time course of erythema resolution was recorded at 30 minute intervals.

For another series, the system named is IMQ on mouse skin. Conditions: topical; cited from earlier work.
Setting [3] is: theoretical Rm at 0% organic modifier.
Setting [4] is: 3% in petroleum jelly, statistically significant (P<0.05) only on day 3.
The mark [5] stands for this setting: 3% in petroleum jelly, vs Vehicle.
Setting [6] is: in petroleum jelly (concentration not given), vs Vehicle.

This is an account of results in US11179380B2, “Compounds and compositions for use in treating psoriasis” (SOLVOTRIN THERAPEUTICS LTD, priority 2017, dated 2021).

Like-named read-outs stand apart in the source and are kept apart here.

Consider `O=[N+]([O-])O[C@@H]1CO[C@H]2[C@@H]1OC[C@@H]2O` [ISMN, isosorbide mononitrate, reference compound], for which the Rf in series [1] (40% MeOH in water) is reported as 0.6060; in series [1] (50% MeOH in water) it was 0.6530; in series [1] (60% MeOH in water), 0.7000. The Rm in series [1] (40% MeOH in water) is −0.1870; in series [1] (50% MeOH in water), −0.2746; in series [1] (60% MeOH in water) it was −0.3680. The “Log P (calculated)” value in series [1] (from extrapolated Rm correlated to literature log P of methyl benzoate and paracetamol) is −0.333. The “Extrapolated Rm (y value)” value in series [1] (setting [3]) was 0.176.
As for `CC(=O)OC1COC2C(OC(=O)c3cccnc3)COC12` (centres unmarked) [Isosorbide-2-Acetate-5-nicotinate, Isosorbide 2-acetate-5-nicotinate], in series [1], the “Extrapolated Rm (y value)” value was 1.2763 and the “Log P (calculated)” value is recorded as 1.3369. Besides, in series [1] (40% MeOH in water), the Rf is 0.2860 and the Rm was 0.3973. Besides, in series [1] (50% MeOH in water), the Rf turned out to be 0.3730 and the Rm is 0.2256. In addition, in series [1] (60% MeOH in water), the Rf worked out at 0.5200 and the Rm is listed as −0.0348.
For `O=C(OC1COC2C(OC(=O)c3cccnc3)COC12)c1ccccc1` (centres unmarked) [Isosorbide-2-Benzoate-5-nicotinate, Isosorbide 2-benzoate-5-nicotinate], in series [1], the “Extrapolated Rm (y value)” value was 3.5292 and the “Log P (calculated)” value was 4.7555. In series [1] (40% MeOH in water), the Rf is 0.0260 and the Rm is 1.5736. Further, in series [1] (50% MeOH in water), the Rf was 0.0870 and the Rm is on record as 1.0210. For the same molecule, in series [1] (60% MeOH in water), the Rf is 0.2060 and the Rm is 0.5860.
Regarding `CCCC(=O)O[C@H]1CO[C@H]2[C@@H]1OC[C@H]2OC(=O)c1cccnc1` [Isosorbide-2-Butyrate-5-nicotinate, Isosorbide 2-butyrate-5-nicotinate], in series [1], the “Extrapolated Rm (y value)” value is 2.2483 and the “Log P (calculated)” value is 2.8118. Besides, in series [1] (40% MeOH in water), the Rf came to 0.1060 and the Rm is reported as 0.9260. In addition, in series [1] (50% MeOH in water), the Rf was 0.2067 and the Rm was 0.5841. Also, in series [1] (60% MeOH in water), the Rf was 0.3530 and the Rm is listed as 0.2631.
For the molecule `CCC(=O)OC1COC2C(OC(=O)c3cccnc3)COC12` (centres unmarked) [Isosorbide-2-Propionate-5-nicotinate, Isosorbide 2-propionate-5-nicotinate], in series [1], the “Extrapolated Rm (y value)” value is recorded as 1.9553 and the “Log P (calculated)” value is on record as 2.367. Further, in series [1] (40% MeOH in water), the Rf was 0.1600 and the Rm was 0.7202. In addition, in series [1] (50% MeOH in water), the Rf is recorded as 0.2730 and the Rm is 0.4254. In series [1] (60% MeOH in water), the Rf is recorded as 0.4400 and the Rm is given as 0.1047.
As to `CCCCC(=O)O[C@H]1CO[C@H]2[C@@H]1OC[C@H]2OC(=O)c1cccnc1` [Isosorbide-2-Valeroate-5-nicotinate, Isosorbide 2-valeroate-5-nicotinate], in series [1], the “Extrapolated Rm (y value)” value is on record as 2.9143 and the “Log P (calculated)” value is listed as 3.8225. In addition, in series [1] (40% MeOH in water), the Rf amounted to 0.0530 and the Rm is 1.2521. In series [1] (50% MeOH in water), the Rf is 0.1200 and the Rm is on record as 0.8653. In series [1] (60% MeOH in water), the Rf was 0.2730 and the Rm is 0.4254.
As to `COC(=O)c1ccccc1` [Methyl Benzoate, methyl benzoate, reference compound], the “Log P (ref)” value in series [2] is 2.2 (1). Also, in series [1], the “Log P (calculated)” value is reported as 2.2. In addition, the Rf amounted to 0.1460 in series [1] (40% MeOH in water), 0.1867 in series [1] (50% MeOH in water) and 0.3600 in series [1] (60% MeOH in water). The Rm is given as 0.7671 in series [1] (40% MeOH in water), 0.6391 in series [1] (50% MeOH in water) and 0.2499 in series [1] (60% MeOH in water). The “Extrapolated Rm (y value)” value in series [1] (setting [3]) was 1.845.
Take `CC(=O)Nc1ccc(O)cc1` [Paracetamol, paracetamol, reference compound]: in series [2], the “Log P (ref)” value is 0.48 (2). The Rf in series [1] (40% MeOH in water) is given as 0.5460; in series [1] (50% MeOH in water), 0.6270; in series [1] (60% MeOH in water), 0.7460. The Rm is −0.0801 in series [1] (40% MeOH in water), −0.2256 in series [1] (50% MeOH in water) and −0.4679 in series [1] (60% MeOH in water). Further, in series [1] (setting [3]), the “Extrapolated Rm (y value)” value was 0.7116.
In the case of `CC(=O)Oc1ccccc1C(=O)OC1COC2C(OC(=O)c3ccccc3O)COC12` (centres unmarked) [ST0701, Isosorbide-2-aspirinate-5-salicylate], the PASI scores entry with Aldara-treated mice (setting [4]) was “reduced the PASI scores”. For the same molecule, in the series with Aldara-treated mice (setting [5]), the erythema entry was “reduced levels of elevated skin thickness and erythema”; the skin thickness entry is given as “reduced levels of elevated skin thickness”. For the same molecule, in the series on Aldara-treated mice, the “inflammation in the mouse psoriasis model” value was “did not inhibit inflammation”.
As for `O=C(O[C@@H]1CO[C@H]2[C@@H]1OC[C@@H]2OC(=O)c1ccccc1O)c1cccnc1` [ST0702Sal, Isosorbide-2-salicylate-5-nicotinate], in the series with Aldara-treated mice (in petroleum jelly (concentration not given), days 4, 5 and 6), the PASI scores result is given as “significantly reduced”. Besides, in the series on Aldara-treated mice (setting [6]), the Aldara-induced scaling entry is “significantly (P<0.001) reduced”, the erythema entry is recorded as “not altered” and the skin thickness result is “not altered”.
As to `CC(=O)Oc1ccccc1C(=O)O[C@H]1CO[C@H]2[C@@H]1OC[C@H]2OC(=O)c1ccncc1` [ST0703, Isosorbide-2-aspirinate-5-isonicotinate], the PASI scores entry in the series with Aldara-treated mice (setting [4]) is reported as “reduced the PASI scores”. Moreover, in the series with Aldara-treated mice (setting [5]), the erythema entry was “reduced levels of elevated skin thickness and erythema”; the skin thickness entry is “reduced levels of elevated skin thickness”. Moreover, the “inflammation in the mouse psoriasis model” value in the series on Aldara-treated mice is recorded as “did not inhibit inflammation”.
`C=C1/C(=C\C=C2/CCC[C@]3(C)[C@@H]([C@H](C)/C=C/[C@@H](O)C4CC4)CC[C@@H]23)C[C@@H](O)C[C@@H]1O` [calcipotriol]: the “cumulative irritancy score (irritancy/erythema)” value in the series with normal healthy skin (0.005%) is on record as “did cause erythema”. For the same molecule, in the series with IMQ on mouse skin, the “IMQ-induced increased thickness of epidermal and subcutaneous tissue” value is recorded as “exacerbated”; the thickness reduction result is reported as “ineffective”.
On to `C[C@H]1C[C@H]2[C@@H]3CCC4=CC(=O)C=C[C@]4(C)[C@@]3(F)[C@@H](O)C[C@]2(C)[C@@]1(O)C(=O)CCl` [clobetesol], for which the thickness reduction entry with IMQ on mouse skin is “best”.
Take `O=C(O)c1cccnc1` [niacin]: the temporal erythema response result in the series with normal healthy skin (5% in petroleum jelly) is “persisted in the niacin case up to six hours”. In addition, in the series with normal healthy skin (in vivo), the skin irritation result is on record as “causes skin irritation”.
For `O=C(O)c1ccccc1O` [salicylic acid], in the series with normal healthy skin (2%), the “cumulative irritancy score (irritancy/erythema)” value is on record as “did cause erythema”.
With `CCOC(=O)c1ccc(C#Cc2ccc3c(c2)C(C)(C)CCS3)nc1` [tazarotene], in the series with IMQ on mouse skin, the “IMQ-induced increased thickness of epidermal and subcutaneous tissue” value was “exacerbated”; the thickness reduction entry was “ineffective”.
